# Entries after “also recorded” stand apart in the source; their conditions may differ. In the oligonucleotide strings, read from the 5' end, every base follows the letter of its sugar. An asterisk marks phosphorothioate; unmarked linkages are phosphodiester. Other units and linkages are bracketed, terminal groups are in braces. A string of capitals states the bases alone. e = 2'-O-(2-methoxyethyl) (MOE); [5mC] = 5-methylcytosine; d = 2'-deoxy (DNA)
# Legend:
# [1] = test system: preadipocytes / differentiating adipocytes; experiment: Adipocyte differentiation assay, markers taken together; type: cell-based, human; conditions: for 5 markers of adipocyte differentiation / five markers of adipocyte differentiation: differentiating adipocytes; for 5 markers of adipocyte differentiation: % of UTC (Table 75); for expression levels of markers of adipocyte differentiation (TG, leptin, aP2, HSL, Glut4, PPARγ): preadipocytes, 250 nM, day nine post-transfection, relative to ISIS-29848; for five markers of adipocyte differentiation: % of UTC (Table 55)
# Description: Oligomeric compounds of the invention are tested for their effects on preadipocyte differentiation. […] For the other adipocyte differentiation markers assayed, an oligomeric compound targeted to PPAR-γ, also known to inhibit adipocyte differentiation, may be used as a positive control.
# Cells are transfected as described herein. […] Untreated control cells receive LIPOFECTIN™ only.
# After the cells have reach confluence (approximately three days), they are exposed for an additional three days to differentiation medium (Zen-Bio, Inc., Research Triangle Park, N.C.) containing a PPAR-γ agonist, IBMX, dexamethasone, and insulin. Cells are then fed adipocyte medium (Zen-Bio, Inc.), which is replaced at 2 or 3 day intervals.
# For assaying adipocyte differentiation, expression of the four hallmark genes, HSL, aP2, Glut4, and PPARγ, as well as triglyceride (TG) accumulation and leptin secretion were measured in adipocytes transfected with the uniform 2′-MOE phosphorothioate (PS) oligomeric compounds previously described. Cells are lysed on day nine post-transfection, in a guanadinium-containing buffer and total RNA is harvested. Real-time PCR is performed (Applied Biosystems, Prism 7700) on the total RNA using the following primer/probe sets for the adipocyte differentiation hallmark genes: (aP2): forward 5′-GGTGGTGGAATGCGTCATG-3′ (SEQ ID NO: 746), reverse 5′-[…]-3′ (SEQ ID NO: 747), probe 5′-FAM-[…]-TAMRA-3′ (SEQ ID NO: 748); (Glut4): forward 5′-GGCCTCCGCAGGTTCTG-3′ (SEQ ID NO: 749), reverse 5′-[…]-3′ (SEQ ID NO: 750), probe 5′-FAM-[…]-TAMRA-3′ (SEQ ID NO: 751); (HSL): forward 5′-ACCTGCGCACAATGACACA-3′ (SEQ ID NO: 752), reverse 5′-[…]-3′ (SEQ ID NO: 753), probe 5′-FAM-[…]-TAMRA-3′ (SEQ ID NO: 754); (PPAR-γ): forward 5′-[…]-3′ (SEQ ID NO: 755), reverse 5′-[…]-3′ (SEQ ID NO: 756), probe 5′-FAM-[…]-TAMRA-3′ (SEQ ID NO: 757). The amount of total RNA in each sample is determined using a Ribogreen Assay (Molecular Probes, Eugene, Oreg.), and expression levels of the adipocyte differentiation hallmark genes were normalized to total RNA. Leptin protein and triglyceride levels as well as mRNA levels for each of the four adipocyte differentiation hallmark genes are expressed relative to control levels (control=treatment with ISIS-29848 (SEQ ID NO: 737)).
# In some embodiments, differentiating adipocytes were treated with uniform 2′-MOE phosphorothioate oligomeric compounds according to the methods described above, and the expression of the four hallmark genes, HSL, aP2, Glut4, and PPARγ, as well as triglyceride (TG) accumulation were measured. […] Undifferentiated adipocytes were also compared as a negative control. […] The effects of TNF-α, also known to inhibit adipocyte differentiation, were also measured.
# [2] = test system: BJ, B16-F10, T47D, T47Dp53 and HeLa cells; experiment: Cell cycle assay (propidium iodide flow cytometry), cell line panel; type: cell-based; conditions: 150 nM, 72 hours (Table 29)
# [3] = test system: HeLa cells; experiment: Cell cycle assay in HeLa cells; type: cell-based, human; conditions: HeLa, 150 nM
# [4] = test system: PEPCK-c; experiment: PEPCK-c mRNA expression in HepG2 cells; type: cell-based, human; conditions: HepG2, 1 nM insulin, 100 nM
# [5] = test system: T47D cells; experiment: Caspase-3 activity assay (apoptosis) in T47D cells; conditions: caspase assay, 200 nM; conclusion from Tables 9-12
# [6] = test system: PPARγ; experiment: PPARγ mRNA expression in adipocytes (real-time PCR); type: cell-based, human; conditions: preadipocytes, 250 nM, day nine
# [7] = test system: HuVECs; experiment: Endothelial tube formation assay in HuVECs; conditions: 75 nM
# Description: In some embodiments, HUVECs are used to measure the effects of oligomeric compounds of the invention on endothelial tube formation activity. The tube formation assay is performed using an in vitro Angiogenesis Assay Kit (Chemicon International, Temecula, Calif.).
# Approximately fifty hours after transfection, cells are transferred to 96-well plates coated with ECMatrix™ (Chemicon International). Under these conditions, untreated HUVECs form tube-like structures. After an overnight incubation at 37° C., treated and untreated cells are inspected by light microscopy. Tube formation in cells treated with oligomeric compounds is compared to that in untreated control cells. Individual wells are assigned discrete scores from 1 to 5 depending on the extent of tube formation. A score of 1 refers to a well with no tube formation while a score of 5 is given to wells where all cells are forming an extensive tubular network.
# In one embodiment, primary human umbilical vein endothelial cells (HuVECs) were used to measure the effects of oligomeric compounds targeted to miRNAs on tube formation activity. HuVECs were routinely cultured in EBM (Clonetics Corporation, Walkersville, Md.) supplemented with SingleQuots supplements (Clonetics Corporation, Walkersville, Md.). […] HuVECs are plated at 3000 cells/well in 96-well plates. One day later, cells are transfected with oligomeric compounds. The tube formation assay is performed using an in vitro Angiogenesis Assay Kit (Chemicon International, Temecula, Calif.).
# ISIS 29248 and ISIS 196103 are chimeric 5-10-52′-MOE gapmer oligonucleotides. […] All cytidine residues are 5-methylcytidines. ISIS 342672 (SEQ ID NO: 789) contains 13 mismatches with respect to the mature mir-143 miRNA, and was also used as a negative control. ISIS 342672 is a uniform 2′-MOE phosphorothioate oligomeric compound 22 nucleotides in length. All cytidine residues are 5-methylcytidines.
# Oligomeric compound was mixed with LIPOFECTIN™ (Invitrogen Life Technologies, Carlsbad, Calif.) in OPTI-MEM™ (Invitrogen Life Technologies, Carlsbad, Calif.) to achieve a final concentration of 75 nM of oligomeric compound and 2.25 μg/mL LIPOFECTIN™. Before adding to cells, the oligomeric compound, LIPOFECTIN™ and OPTI-MEM™ were mixed thoroughly and incubated for 0.5 hrs. Untreated control cells received LIPOFECTIN™ only. […] Compounds targeted to miRNAs were tested in triplicate, and ISIS 29848 was tested in up to six replicates. […] 100 μL of full growth medium was added to each well. Fifty hours after transfection, cells are transferred to 96-well plates coated with ECMa-trix™ (Chemicon Inter-national). Under these conditions, untreated HuVECs form tube-like structures.
substance,measurement,setting,value
"CTACCTGCACGAACAGCACTTT (chemistry not given here) [ISIS 340348, uniform 2′-MOE PS; targets mir-93]",5 markers of adipocyte differentiation,[1],significantly reduce the expression levels of 3 of the 5 markers of adipocyte differentiation
same,percentage of cells with hypodiploid DNA content (subG1),[2],increased percentage of cells with hypodiploid DNA content
"AAGGGATTCCTGGGAAAACTGGAC (chemistry not given here) [ISIS 327933, uniform 2′-MOE PS; targets mir-145]","expression levels of markers of adipocyte differentiation (TG, leptin, aP2, HSL, Glut4, PPARγ)",[1],increase in all six markers of adipocyte differentiation
same,percentage of cells in the G2/M phase,[2],increased percentage of cells in the G2/M phase
same,phase of the cell cycle in which cells arrest or delay,[3]; 24 hours,G2/M-phase
same,phase of the cell cycle in which cells arrest or delay,[3]; 48 hours,subG1-phase
"AATCTCATTTTCATACTTGCA (anti-miR; chemistry not fully specified) [ISIS 328114, uniform 2′-MOE PS; targets hypothetical miRNA-138]",five markers of adipocyte differentiation,[1],increase in all five markers of adipocyte differentiation
same,reduction of PEPCK-c mRNA expression,[4],59%
ISIS 328400: 5-10-5 2′-MOE gapmer PS; targets mir-196-2 pri-miRNA (eA*eG*eT*eT*e[5mC]*dA*dA*dA*dA*d[5mC]*dT*d[5mC]*dA*dA*dT*e[5mC]*e[5mC]*e[5mC]*eA*eA),five markers of adipocyte differentiation,[1],reduce the expression levels of all five markers of adipocyte differentiation
same,apoptosis in T47D cells,[5],induce apoptosis
"AACCATACAACCTACTACCTCA (chemistry not given here) [ISIS 327931, uniform 2′-MOE PS; targets let-7c]","expression levels of markers of adipocyte differentiation (TG, leptin, aP2, HSL, Glut4, PPARγ)",[1],increase in four out of six markers of adipocyte differentiation; also recorded: increase in expression levels for several markers of adipocyte differentiation
same,expression of PPAR-γ,[6],significant increase in the expression of PPAR-γ
"ISIS 344340: SEQ ID NO: 1921, targeted to mir-140 (antisense UGUCCGUGGUUCUACCCUGUGGUA; all 2'-MOE, all phosphorothioate, methylation of C and T or U not given here)",5 markers of adipocyte differentiation,[1],significantly reduce the expression levels of 3 of the 5 markers of adipocyte differentiation
"GTCTGTCAATTCATAGGTCAT (chemistry not given here) [ISIS 327960, uniform 2′-MOE PS; targets mir-215]",five markers of adipocyte differentiation,[1],reduce the expression levels of all five markers of adipocyte differentiation
"CCAAGTGTTAGAGCAAGATCA (anti-miR; chemistry not fully specified) [ISIS 328126, uniform 2′-MOE PS; targets hypothetical miRNA-170]",5 markers of adipocyte differentiation,[1],increases in 4 of the 5 markers of adipocyte differentiation
AACCGATTTCAGATGGTGCTAG (anti-miR; chemistry not fully specified) [ISIS 327928],five markers of adipocyte differentiation,[1],reduce the expression levels of all five markers of adipocyte differentiation
same,tube formation,[7],suppressed tube formation
"ISIS 340352: SEQ ID NO: 1821, targeted to mir-99 (Mourelatos) (CACAAGAUCGGAUCUACGGGUU; all 2'-MOE, all phosphorothioate, methylation of C and T or U not given here)",5 markers of adipocyte differentiation,[1],increases in 4 of the 5 markers of adipocyte differentiation
"ISIS 346687: SEQ ID NO: 1802, targeted to mir-129-1 (antisense AGCAAGCCCAGACCGCAAAAAG; all 2'-MOE, all phosphorothioate, methylation of C not given here)",5 markers of adipocyte differentiation,[1],significantly reduce the expression levels of 3 of the 5 markers of adipocyte differentiation
"AACACTGATTTCAAATGGTGCTA (anti-miR; chemistry not fully specified) [ISIS 327876, uniform 2′-MOE PS; targets mir-29b-1]","expression levels of markers of adipocyte differentiation (TG, leptin, aP2, HSL, Glut4, PPARγ)",[1],reduce the expression of several hallmark genes of adipocyte differentiation

# Source: patent US8178506B2, “Oligomeric compounds and compositions for use in modulation of small non-coding RNAs” (Regulus Therapeutics Inc., priority 2003, dated 2012)
